Test results as given in ChEMBL document CHEMBL1201862, “PubChem BioAssay data set” (2004).
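How tested: cells in 96-well plates exposed to compound for 48 hours at five concentrations. GI50: concentration for 50% inhibition of growth.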 The source made the active and inactive calls. Rule as the data show it: active = GI50 up to about 1.1 µM and inactive = higher.

Legend:
Test in all cases: NCI tumour cell line growth inhibition, 48 h
CCRF-CEM = test system: CCRF-CEM
COLO 205 = test system: COLO 205
HCT-15 = test system: HCT-15
HL-60 = test system: HL-60
HOP-62 = test system: HOP-62
HT-29 = test system: HT-29
Hs-578T = test system: Hs-578T
K562 = test system: K562
Malme-3M = test system: Malme-3M
NCI-H23 = test system: NCI-H23
NCI-H460 = test system: NCI-H460
SF-295 = test system: SF-295
SF-539 = test system: SF-539
SK-MEL-28 = test system: SK-MEL-28
SK-OV-3 = test system: SK-OV-3
SN12C = test system: SN12C
SW-620 = test system: SW-620
U-251 = test system: U-251
UACC-257 = test system: UACC-257
A498 = test system: A498

Cc1cc(NS(=O)(=O)c2ccc(NC(NC(=O)C(C(F)(F)F)C(F)(F)F)(C(F)(F)F)C(F)(F)F)cc2)no1
GI50 (CCRF-CEM): > 100 µM (inactive)
GI50 (COLO 205): > 100 µM (inactive)
GI50 (HCT-15): > 100 µM
GI50 (HL-60): > 100 µM (inactive)
GI50 (HOP-62): > 100 µM (inactive)
GI50 (HT-29): > 100 µM (inactive)
GI50 (Hs-578T): > 100 µM (inactive)
GI50 (K562): > 100 µM (inactive)
GI50 (Malme-3M): > 100 µM (inactive)
GI50 (NCI-H23): > 100 µM (inactive)
GI50 (NCI-H460): > 100 µM (inactive)
GI50 (SF-295): > 100 µM (inactive)
GI50 (SF-539): > 100 µM (inactive)
GI50 (SK-MEL-28): > 100 µM (inactive)
GI50 (SK-OV-3): 1.96 µM (inactive)
GI50 (SN12C): > 100 µM (inactive)
GI50 (SW-620): > 100 µM (inactive)
GI50 (U-251): > 100 µM (inactive)
GI50 (UACC-257): > 100 µM (inactive)

NC(=O)NCCSC1CCCCC1O (stereo not given)
GI50 (A498): > 100 µM (inactive)
GI50 (COLO 205): > 100 µM (inactive)
GI50 (HCT-15): > 100 µM
GI50 (HOP-62): > 100 µM (inactive)
GI50 (HT-29): > 100 µM (inactive)
GI50 (Hs-578T): > 100 µM (inactive)
GI50 (K562): > 100 µM (inactive)
GI50 (Malme-3M): > 100 µM (inactive)
GI50 (NCI-H23): > 100 µM (inactive)
GI50 (NCI-H460): > 100 µM (inactive)
GI50 (SF-295): > 100 µM (inactive)
GI50 (SF-539): > 100 µM (inactive)
GI50 (SK-MEL-28): > 100 µM (inactive)
GI50 (SK-OV-3): > 100 µM (inactive)
GI50 (SN12C): > 100 µM (inactive)
GI50 (SW-620): > 100 µM (inactive)
GI50 (U-251): > 100 µM (inactive)
GI50 (UACC-257): > 100 µM (inactive)

O=c1onc2c3ccccc3ncn12
GI50 (A498): > 100 µM (inactive)
GI50 (CCRF-CEM): > 100 µM (inactive)
GI50 (COLO 205): > 100 µM (inactive)
GI50 (HCT-15): > 100 µM
GI50 (HOP-62): > 100 µM (inactive)
GI50 (HT-29): > 100 µM (inactive)
GI50 (Hs-578T): > 100 µM (inactive)
GI50 (K562): > 100 µM (inactive)
GI50 (NCI-H23): > 100 µM (inactive)
GI50 (SF-295): > 100 µM (inactive)
GI50 (SF-539): > 100 µM (inactive)
GI50 (SK-MEL-28): > 100 µM (inactive)
GI50 (SK-OV-3): > 100 µM (inactive)
GI50 (SN12C): > 100 µM (inactive)
GI50 (SW-620): > 100 µM (inactive)
GI50 (U-251): > 100 µM (inactive)
GI50 (UACC-257): > 100 µM (inactive)

Cc1ccc(S(=O)(=O)NC(=O)NCC(=O)O)cc1
GI50 (CCRF-CEM): > 100 µM (inactive)
GI50 (COLO 205): > 100 µM (inactive)
GI50 (HCT-15): > 100 µM
GI50 (HL-60): > 100 µM (inactive)
GI50 (HOP-62): > 100 µM (inactive)
GI50 (HT-29): > 100 µM (inactive)
GI50 (Hs-578T): > 100 µM (inactive)
GI50 (K562): > 100 µM (inactive)
GI50 (Malme-3M): > 100 µM (inactive)
GI50 (NCI-H23): > 100 µM (inactive)
GI50 (NCI-H460): > 100 µM (inactive)
GI50 (SF-295): > 100 µM (inactive)
GI50 (SF-539): > 100 µM (inactive)
GI50 (SK-MEL-28): > 100 µM (inactive)
GI50 (SK-OV-3): > 100 µM (inactive)
GI50 (SN12C): > 100 µM (inactive)
GI50 (SW-620): > 100 µM (inactive)
GI50 (U-251): > 100 µM (inactive)
GI50 (UACC-257): > 100 µM (inactive)

Cc1cc(NS(=O)(=O)c2ccc(NC(=O)c3ccc4[nH]c5ccccc5c(=O)c4c3)cc2)no1
GI50 (CCRF-CEM): 40.9 µM (inactive)
GI50 (COLO 205): > 100 µM (inactive)
GI50 (HCT-15): > 100 µM
GI50 (HL-60): > 100 µM (inactive)
GI50 (HOP-62): > 100 µM (inactive)
GI50 (HT-29): > 100 µM (inactive)
GI50 (Hs-578T): 49.9 µM (inactive)
GI50 (K562): > 100 µM (inactive)
GI50 (Malme-3M): 56.9 µM (inactive)
GI50 (NCI-H23): > 100 µM (inactive)
GI50 (NCI-H460): > 100 µM (inactive)
GI50 (SF-295): > 100 µM (inactive)
GI50 (SF-539): 68.1 µM (inactive)
GI50 (SK-MEL-28): > 100 µM (inactive)
GI50 (SK-OV-3): > 100 µM (inactive)
GI50 (SN12C): > 100 µM (inactive)
GI50 (SW-620): > 100 µM (inactive)
GI50 (U-251): 47.4 µM (inactive)
GI50 (UACC-257): > 100 µM (inactive)

COc1ccc(/C=C(\NC(=O)c2ccccc2)C(=O)NN(C)c2ccnc3cc(Cl)ccc23)cc1OC
GI50 (A498): > 100 µM (inactive)
GI50 (COLO 205): 24.2 µM (inactive)
GI50 (HCT-15): 24.7 µM
GI50 (HOP-62): 41.3 µM (inactive)
GI50 (HT-29): 34.7 µM (inactive)
GI50 (Hs-578T): 52.8 µM (inactive)
GI50 (K562): 18.9 µM (inactive)
GI50 (Malme-3M): 26.1 µM (inactive)
GI50 (NCI-H23): 24 µM (inactive)
GI50 (NCI-H460): 19 µM (inactive)
GI50 (SF-295): 36.2 µM (inactive)
GI50 (SF-539): 21.5 µM (inactive)
GI50 (SK-MEL-28): 26 µM (inactive)
GI50 (SK-OV-3): > 100 µM (inactive)
GI50 (SN12C): 25.9 µM (inactive)
GI50 (SW-620): 22.1 µM (inactive)
GI50 (U-251): 19.7 µM (inactive)
GI50 (UACC-257): 26.4 µM (inactive)
